Source: ChEMBL document CHEMBL1201862, “PubChem BioAssay data set” (2004)
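1) Cells in 96-well plates. 2) Compound, 48 h, 5 concentrations. 3) Linear interpolation between surrounding doses. 4) Unreached endpoint = highest concentration. The concentration for 50% growth inhibition is given as GI50.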 Calls of active or inactive are those of the source. Cut-off read from the data, not from the text of the source: active = GI50 up to about 1.1 µM and inactive = higher.

Key:
Assay in all cases: NCI anticancer screen, dose series, 48 h
786-0 = system: 786-0
A498 = system: A498
A549 = system: A549
ACHN = system: ACHN
CAKI-1 = system: CAKI-1
CCRF-CEM = system: CCRF-CEM
COLO 205 = system: COLO 205
DLD-1 = system: DLD-1
DMS-114 = system: DMS-114
DMS-273 = system: DMS-273
EKVX = system: EKVX
HCT-116 = system: HCT-116
HCT-15 = system: HCT-15
HL-60 = system: HL-60
HOP-18 = system: HOP-18
HOP-62 = system: HOP-62
HOP-92 = system: HOP-92
HT-29 = system: HT-29
IGROV-1 = system: IGROV-1
K562 = system: K562
KM-20L2 = system: KM-20L2
KM12 = system: KM12
LOX IMVI = system: LOX IMVI
LXFL 529 = system: LXFL 529
M14 = system: M14
M19-MEL = system: M19-MEL
MOLT-4 = system: MOLT-4
Malme-3M = system: Malme-3M
NCI-H226 = system: NCI-H226
NCI-H23 = system: NCI-H23
NCI-H460 = system: NCI-H460
NCI-H522 = system: NCI-H522
OVCAR-3 = system: OVCAR-3
OVCAR-4 = system: OVCAR-4
OVCAR-5 = system: OVCAR-5
OVCAR-8 = system: OVCAR-8
RPMI-8226 = system: RPMI-8226
RXF 393 = system: RXF 393
SF-268 = system: SF-268
SF-295 = system: SF-295
SF-539 = system: SF-539
SK-MEL-28 = system: SK-MEL-28
SK-MEL-5 = system: SK-MEL-5
SN12C = system: SN12C
SNB-19 = system: SNB-19
SNB-75 = system: SNB-75
SNB-78 = system: SNB-78
SW-620 = system: SW-620
TK-10 = system: TK-10
U-251 = system: U-251
UACC-257 = system: UACC-257
UACC-62 = system: UACC-62
UO-31 = system: UO-31

## COc1cc(CCc2cccnc2)cc(OC)c1OC
786-0
  GI50: > 100 µM (inactive)
A498
  GI50: > 100 µM (inactive)
A549
  GI50: > 100 µM (inactive)
ACHN
  GI50: > 100 µM (inactive)
CAKI-1
  GI50: > 100 µM (inactive)
CCRF-CEM
  GI50: > 100 µM (inactive)
COLO 205
  GI50: > 100 µM (inactive)
DLD-1
  GI50: > 100 µM (inactive)
DMS-114
  GI50: 77.4 µM (inactive)
DMS-273
  GI50: > 100 µM (inactive)
EKVX
  GI50: > 100 µM (inactive)
HCT-116
  GI50: > 100 µM (inactive)
HCT-15
  GI50: > 100 µM
HL-60
  GI50: > 100 µM (inactive)
HOP-18
  GI50: > 100 µM (inactive)
HOP-62
  GI50: > 100 µM (inactive)
HOP-92
  GI50: 30.3 µM (inactive)
HT-29
  GI50: > 100 µM (inactive)
IGROV-1
  GI50: > 100 µM (inactive)
K562
  GI50: > 100 µM (inactive)
KM-20L2
  GI50: > 100 µM (inactive)
KM12
  GI50: > 100 µM (inactive)
LOX IMVI
  GI50: > 100 µM (inactive)
LXFL 529
  GI50: > 100 µM (inactive)
M14
  GI50: > 100 µM (inactive)
M19-MEL
  GI50: > 100 µM (inactive)
MOLT-4
  GI50: > 100 µM (inactive)
Malme-3M
  GI50: > 100 µM (inactive)
NCI-H226
  GI50: > 100 µM (inactive)
NCI-H23
  GI50: > 100 µM (inactive)
NCI-H460
  GI50: > 100 µM (inactive)
NCI-H522
  GI50: 65.8 µM (inactive)
OVCAR-3
  GI50: > 100 µM (inactive)
OVCAR-4
  GI50: > 100 µM (inactive)
OVCAR-5
  GI50: 38.5 µM (inactive)
OVCAR-8
  GI50: > 100 µM (inactive)
RPMI-8226
  GI50: > 100 µM (inactive)
RXF 393
  GI50: > 100 µM (inactive)
SF-268
  GI50: > 100 µM (inactive)
SF-295
  GI50: > 100 µM (inactive)
SF-539
  GI50: > 100 µM (inactive)
SK-MEL-28
  GI50: > 100 µM (inactive)
SK-MEL-5
  GI50: > 100 µM (inactive)
SN12C
  GI50: > 100 µM (inactive)
SNB-19
  GI50: > 100 µM (inactive)
SNB-75
  GI50: 51.1 µM (inactive)
SNB-78
  GI50: > 100 µM (inactive)
SW-620
  GI50: > 100 µM (inactive)
TK-10
  GI50: > 100 µM (inactive)
U-251
  GI50: > 100 µM (inactive)
UACC-257
  GI50: > 100 µM (inactive)
UACC-62
  GI50: > 100 µM (inactive)
UO-31
  GI50: > 100 µM (inactive)
